{
  "source": "patent US20090143360A1",
  "about": "“Oxcarbazepine Formulation” (priority 2005, published 2009)",
  "origin": "cited, not measured here",
  "data": [
    {"compound": "NC(=O)N1c2ccccc2CC(=O)c2ccccc21", "note": "[Oxcarbazepine, 10,11-Dihydro-10-oxo-5H-dibenz[b,f]azepine-5-carboxamide]", "values": [
      {"measurement": "Solubility in water", "result": "very low"}
    ]}
  ]
}
